What was measured:
Format in all cases: in vivo, Glycine max
[1] = system: wild-type A3237 soybean; assay: Hilum treatment of soybean seeds, seedling growth and development, wild-type soybean; design: key to Emergence timing / Hypocotyl length (6 DAP) / 1st internode length (12 DAP) / 3rd internode length (20 DAP): pos: emergence faster/stem segment longer than controls; 0: emergence timing/stem segment length similar to controls; neg: emergence slower/stem segment shorter than controls; conditions: for 1st internode length (12 DAP) / Emergence timing / Hypocotyl length (6 DAP): single rate per compound 8.3-16.5 μg/seed
Procedure: In the previous experiments, the effect of various GA compounds on transgenic, GA-deficient and wild-type soybean is evaluated by treating seeds with these compounds via imbibition. Several of these compounds are not completely soluble in water, which limited the interpretation of their utility in rescuing GA-deficient dwarf plants. The purpose of this experiment is to reevaluate selected, previously tested compounds, and additional compounds, by introducing them to the seed via the hilum. As shown by the results presented below, direct application of small quantities of GA compounds dissolved in an organic solvent to the hilum is an effective method of treating soybean seeds. As in the previously described experiments, comparison is made between activity on GA-deficient soybean seedlings and normal (wild-type) seedlings. […] soybean seeds are supplied by Asgrow Seed Company (Des Moines, Iowa). Seed of GA-deficient transgenic soybean line 719 is created by transformation of […] soybean with pMON29801 (FMV/antisense CPScc). Fifth generation seed (R5) is used for these experiments. […] When multiple droplets are applied, each 1 μl droplet is allowed to dry before subsequent droplets are added. Ethanol minus compound is used a treatment control. […] (29° C.) and 75° F. (24° C.), respectively. Emergence timing is measured by counting the number of emerged seedlings at different times after planting. Emergence is defined as the presence of cotyledons raised to soil level or above. […] To assess the ability of a seed treatment to deliver biological activity beyond the first internode, measurements are taken on selected treatments after prolonged growth and development.

[2] = system: constitutively GA-deficient transgenic dwarf soybeans (line 719); assay: Summary of first two greenhouse experiments, rescue of GA-deficient soybeans; design: key: +: transgenic soybeans are rescued; 0: transgenic soybeans are not rescued
Procedure: Compounds are first prepared as 25 mg/ml solutions in ethanol as described above, and then diluted into 40 ml of water to prepare the final 0.25 mg/ml treatment solutions. Visual observations on solubilities (milky, clear, etc.) of the treatment solutions are noted. The treatment solutions are divided into two 20 ml portions, each in 50 ml plastic centrifuge tubes. In addition to treating seeds with solutions containing the test compounds, untreated seeds and seeds imbibed in ethanol-water solution (300 μl ethanol in 30 mls of water) are also included in this experiment as controls. In the latter case, 20 seeds are imbibed in 30 mls of solution for six hours.
Two soybean varieties are selected for testing: constitutively GA-deficient transgenic dwarf soybean line 719 (plasmid pMON29801, constitutive FMV promoter/asCPScc; which is a mixture of 719−2 and 719+17), and A3237, the wild-type parent material. […] After imbibition, seeds are removed from the test tubes, placed on wax paper to dry, and planted in bread pans containing farm soil amended with fertilizer at 20 seeds/pan. Seeds are covered with 0.5″ of vermiculite. Pans are transferred to the greenhouse, which had day/night temperatures of 86/68° F. (30/20° C.), and subirrigated. Illumination is at a light intensity of 300-400 μmolm^−2s^−1 photosynthetic photon flux; 16 hours light/8 hours dark. Subsequent waterings are also through sub-irrigation until the test is terminated three weeks later. Observations included the number of dwarf, intermediate, and tall plants; plant height; uniformity of rescue; and any visual effects.
(§1) All compounds are tested at final concentrations of 0.25, 0.025, and 0.0025 mg/ml except for GA9, which is tested at 0.125, 0.0125, and 0.00125 mg/ml. (The compounds are tested in Experiment I at only one concentration, i.e., 0.25 mg/ml). Test tubes contained […] of ethanol solution per tube. Final volumes are made up to 30 ml with deionized water. After shaking, the treatment solutions (15 ml each) are transferred to each of two 50 ml test tubes. Treatments 1 to 27 are performed on wild-type line A3237; treatments 28 to 54 are performed on constitutively GA-deficient transgenic dwarf soybean line 719 (a mixture of 719−2 and 719+17). Twenty seeds are used in each treatment. Dry seed, ethanol/water-imbibed seed (1% ethanol in water, v/v), and water-imbibed seeds are included as controls. Seeds are imbibed for 6 hours in the test solutions, then planted in bread pans containing Metromix 350 (The Scotts Company, Marysville, Ohio), and covered with 0.5″ Metro-mix. Covered pans are transferred to the greenhouse and subirrigated. Illumination is at a light intensity of 300-400 μmolm^−2s^−1 photosynthetic photon flux; 16 hours light/8 hours dark. Subsequent waterings are also through sub-irrigation until the test is terminated three weeks later. Observations included the number of dwarf, intermediate, and tall plants; plant height; uniformity of rescue; and any visual effects. Digital photographs are also taken.

[3] = system: constitutively GA-deficient transgenic dwarf soybean line 719; assay: Experiment II second greenhouse test, seed imbibition, GA-deficient soybean; conditions: seeds imbibed 6 hours
Procedure: as §1, with “(The” for “All compounds are tested at final concentrations of 0.25, 0.025, and 0.0025 mg/ml except for GA9, which is tested at 0.125, 0.0125, and 0.00125 mg/ml. (The”, “Treatments 1 to 27 are performed on wild-type line A3237; treatments 28 to 54 are performed on constitutively GA-deficient transgenic dwarf soybean line 719 (a mixture of 719−2 and 719+17).” left out

[4] = 0.0025 mg/ml solution (ethanol-water)
[5] = 0.025 mg/ml solution (ethanol-water)
[6] = 0.25 mg/ml solution (ethanol-water)

SMILES	1st internode length (12 DAP) [1]	Emergence timing [1]	Hypocotyl length (6 DAP) [1]	Rescue of GA-deficient soybeans [2, 4]	Rescue of GA-deficient soybeans [2, 5]	Significant Visual Observations on Line 719 ([3]; 0.0025 mg/ml)	Significant Visual Observations on Line 719 ([3]; 0.025 mg/ml)	Significant Visual Observations on Line 719 ([3]; 0.25 mg/ml)	Rescue of GA-deficient soybeans [2, 6]	Lowest rate where biological activity is observed, 1st internode length (10 DAP) ([1]; rate response) [μg/seed]	Lowest rate where biological activity is observed, emergence timing ([1]; rate response) [μg/seed]	Lowest rate where biological activity is observed, hypocotyl length (5 DAP) ([1]; rate response) [μg/seed]	Rescue of GA-deficient soybeans ([2]; 0.00125 mg/ml solution (ethanol-water))	Rescue of GA-deficient soybeans ([2]; 0.0125 mg/ml solution (ethanol-water))	Rescue of GA-deficient soybeans ([2]; 0.125 mg/ml solution (ethanol-water))	Significant Visual Observations on Line 719 ([3]; 0.00125 mg/ml)	Significant Visual Observations on Line 719 ([3]; 0.0125 mg/ml)	Significant Visual Observations on Line 719 ([3]; 0.125 mg/ml)	3rd internode length (20 DAP) ([1]; rate 9.7 μg/seed)	Lowest rate where biological activity is observed, 3rd internode length (20 DAP) ([1]; rate response) [μg/seed]
C=C1C[C@@]23CC[C@H]4[C@@](C)(CCC[C@@]4(C)C(=O)O)[C@@H]2CC[C@@H]1C3 [kaurenoic acid]	0	0	0	0	0	Poor rescue	Poor rescue	Poor rescue	–	–	–	–	–	–	–	–	–	–	–	–
C=C1C[C@]23C[C@H]1CC[C@H]2[C@]1(C)CCC[C@@](C)(C(=O)O)[C@H]1[C@@H]3C(=O)O [GA12]	0	neg	neg	0	+	Poor rescue	Incomplete rescue	good rescue, with no overelongation	+	–	–	–	–	–	–	–	–	–	–	–
C=C1C[C@]23C[C@H]1CC[C@H]2[C@@]12CCC[C@@](C)(C(=O)O1)[C@H]2[C@@H]3C(=O)O [GA9]	0	pos	pos	–	–	–	–	–	+	1	0.1	1	0	+	+	Poor rescue	Good rescue of dwarfs	good rescue, with no overelongation	–	–
C=C1C[C@]23C[C@@]1(O)CC[C@H]2[C@@]12C=C[C@H](O)[C@@](C)(C(=O)O1)[C@H]2[C@@H]3C(=O)O [GA3, gibberellic acid]	0	pos	pos	+	+	Excessive elongation	Excessive elongation	Excessive elongation	+	1	0.1	0.1	–	–	–	–	–	–	–	–
C=C1C[C@]23C[C@@]1(O)CC[C@H]2[C@@]12CC=C[C@@](C)(C(=O)O1)[C@H]2[C@@H]3C(=O)O [GA5]	pos	pos	pos	+	+	Good rescue of dwarfs	good rescue, with no overelongation	Excessive elongation	+	1	0.1	1	–	–	–	–	–	–	pos	1
C=C1C[C@]23C[C@@]1(O)CC[C@H]2[C@@]12C=C[C@H](OC(C)=O)[C@@](C)(C(=O)O1)[C@H]2[C@@H]3C(=O)O [GA3-3-acetate]	0	pos	pos	+	+	good rescue, with no overelongation	Poor rescue	Excessive elongation	+	–	–	–	–	–	–	–	–	–	–	–

— US6723897B2, “Methods for controlling gibberellin levels” (Monsanto Technology, LLC, priority 1998, dated 2004)
